Where two headings read alike, the source gives them in different places.

The data set is described as follows: log P determination by LC-MS in the acidic range. It counts as physicochemical. From the text:
The LC-MS determination in the acidic range is effected at pH 2.7 using 0.1% aqueous formic acid and acetonitrile (contains 0.1% formic acid) as eluents, linear gradient from 10% acetonitrile to 95% acetonitrile. Alternatively, the determination is effected in the acidic range at pH 2.3 using 0.1% aqueous phosphoric acid and acetonitrile as eluents; linear gradient from 10% acetonitrile to 95% acetonitrile.

Where [1] appears, read: Table 3, HPLC on reversed-phase column (C 18), 55° C., acidic range (pH 2.7 or pH 2.3).
Where [2] appears, read: amines of the formula (II-1), acidic range pH 2.7 (0.1% formic acid/acetonitrile) or pH 2.3 (0.1% phosphoric acid/acetonitrile).
Setting [3] is: pH 2.7, LC-MS in the acidic range, read-out: log P (acid).
Where [4] appears, read: pH 2.7, values given in the synthesis examples and NMR lists, read-out: HPLC-MS: log P.
The mark [5] stands for this setting: Table 4, HPLC on reversed-phase column (C 18), 55° C., acidic range (pH 2.7 or pH 2.3).
The mark [6] stands for this setting: Table 2, compounds of the formula (I-2), acidic range pH 2.7 or pH 2.3.

Turning to `O=C(Nc1cnn(-c2ccc(Cl)cc2)n1)c1cccnc1` [Compound I-3-4], under setting [1], the “log P (acid)” value came to 2.43.
`Cc1cc(N)nn1Cc1ncccc1Cl` [II-1-24]: the “log P (acid)” value under setting [2] came to 0.6.
Turning to `Cc1cc(N)nn1CC(=O)Cc1ccccc1Cl` [II-1-58], under setting [2], the “log P (acid)” value is 1.39.
Regarding `Cc1nn(-c2ccccc2)nc1Cn1nc(NC(=O)c2cccnc2)cc1C` [Compound I-1-303], for the setting “LC-MS in the acidic range”, the “log P (acid)” value is on record as 2.33.
`Cc1cc(N)nn1CC1CC1(Cl)Cl` (centres unmarked) [II-1-53]: under setting [2], the “log P (acid)” value is on record as 1.12.
Same read-out and setting: in the case of `Cc1cc(N)nn1C(C)(C)C#N` [II-1-37] it was 0.64; in that of `CC(C)=CCn1nc(N)cc1C` [II-1-59], 0.73; in that of `CC(C)=NOCn1nc(N)cc1C` [II-1-52], 0.57.
In the case of `Cc1nn(-c2ccc(Cl)cc2Cl)nc1NC(=O)c1cccnc1` [Compound I-3-19], the “log P (acid)” value under setting [1] was 2.24.
Take `Cc1cc(NC(=O)c2cccnc2)nn1C(=O)C1CC1` [Compound I-1-121, N-[1-(Cyclopropylcarbonyl)-5-methyl-1H-pyrazol-3-yl]nicotinamide]: the chromatographic logP reads like this: under setting [3], 1.65; under setting [4], 1.65.
As for `CCOC(=O)Cn1nnc(NC(=O)c2cccnc2)n1` [Compound I-4-5], the “log P (acid)” value under setting [5] is reported as 0.71.
With `Cc1cc(N)nn1-c1cnccn1` [II-1-6], the “log P (acid)” value under setting [2] stood at 0.8.
`Cc1ccc(C(=O)Nc2cc(C)n(Cc3ccccc3F)n2)cn1` [Compound I-1-102]: the “log P (acid)” value (LC-MS in the acidic range) stood at 1.73.
On the same count and under the same terms, under `O=C(Nc1ccn(-c2nccs2)n1)c1cccnc1` [Compound I-1-273] stands 1.16; under `Cc1cc(NC(=O)c2cnc(Cl)c(Cl)c2)nn1Cc1ccc(F)cc1` [Compound I-1-97], 3.23.
Take `Nc1cc(Cl)n(Cc2ncccn2)n1` [II-1-36]: the “log P (acid)” value under setting [2] came to 0.49.
For the molecule `Cc1nn(-c2ncc(Cl)cc2Cl)nc1NC(=O)c1cccnc1` [Compound I-3-17], the “log P (acid)” value under setting [1] was determined as 1.74.
With `Cc1cc(C)nc(-n2nc(NC(=O)c3ccnnc3)cc2C)n1` [Compound I-1-248], the “log P (acid)” value (LC-MS in the acidic range) worked out at 1.53.
Consider `COc1nc(NC(=O)c2cccnc2)nn1-c1ccccc1` [Compound I-2-28], for which the “log P (acid)” value under setting [6] is recorded as 1.23.
As to `Cc1cc(N)nn1Cc1nccs1` [II-1-10], the “log P (acid)” value under setting [2] turned out to be 0.19.
Turning to `Cc1nn(-c2ccccn2)nc1N` [5-Methyl-2-(pyridin-2-yl)-2H-1,2,3-triazol-4-amine], the chromatographic logP under setting [4] worked out at 0.74.
`Cc1cc(N)nn1Cc1ncccn1` [II-1-23, 5-Methyl-1-(pyrimidin-2-ylmethyl)-1H-pyrazole-3-amine]: the chromatographic logP runs as follows: (pH 2.7, amines of the formula (II-1), acidic range pH 2.7 (0.1% formic acid/acetonitrile) or pH 2.3 (0.1% phosphoric acid/acetonitrile), read-out: log P (acid)) under -0.23; under setting [4], under -0.23.
`Cc1cc(N(Cc2ccc3nsnc3c2)C(=O)c2cccnc2)nn1Cc1ccc2nsnc2c1` [Compound I-1-343]: where the note is “LC-MS in the acidic range”, the “log P (acid)” value came to 2.57.
For `CCc1cc(N)nn1Cc1ccc(Cl)nc1` [II-1-19], under setting [2], the “log P (acid)” value is recorded as 1.11.
Turning to `Cc1nc(-n2cnc(NC(=O)c3cccnc3)n2)nc(C)c1C` [Compound I-2-25], under setting [6], the “log P (acid)” value was determined as 1.07.
On to `Cc1cc(N)nn1Cn1ccnn1` [II-1-45], for which the “log P (acid)” value under setting [2] is listed as under −0.23.
As for `O=C(Nc1nn(-c2ccccc2)nc1C(F)(F)F)c1cccnc1` [Compound I-3-12], the “log P (acid)” value under setting [1] is recorded as 2.44.
On to `COC(=O)c1cc(NC(=O)c2cncc(F)c2)nn1C` [Compound I-1-134, Methyl 3-{[(5-fluoropyridin-3-yl)carbonyl]amino}-1-methyl-1H-pyrazole-5-carboxylate], for which the chromatographic logP under setting [3] was 1.5 and the chromatographic logP under setting [4] was 1.5.
On to `O=C(Nc1nc(Cl)n(-c2ccccc2)n1)c1cccnc1` [Compound I-2-27], for which, under setting [6], the “log P (acid)” value worked out at 1.58.
With `O=C(Cn1nnc(NC(=O)c2cccnc2)n1)NCc1cccc2ccccc12` [Compound I-4-7], the “log P (acid)” value under setting [5] turned out to be 1.71.
Take `Nc1cc(C2CC2)n(Cc2ccc(Cl)nc2)n1` [II-1-1]: under setting [2], the “log P (acid)” value worked out at 1.21.
Take `Cc1cc(NC(=O)c2ccnnc2)nn1CC(F)(F)F` [Compound I-1-250]: where the note is “LC-MS in the acidic range”, the “log P (acid)” value came out at 1.2.
Take `O=C(Nc1nn(-c2ccccc2Cl)nc1Cl)c1cccnc1` [Compound I-3-13]: the “log P (acid)” value under setting [1] is 2.04.
For the molecule `O=C(Nc1nnn(Cc2ccccc2)n1)c1cccnc1` [Compound I-4-10], under setting [5], the “log P (acid)” value came to 1.38.
As to `Cc1cc(N)nn1Cn1ccc(C(F)(F)F)n1` [II-1-42], under setting [2], the “log P (acid)” value was found to be 1.51.
As to `Cn1nc(NC(=O)c2cncc(F)c2)cc1C(F)F` [Compound I-1-222], the “log P (acid)” value (LC-MS in the acidic range) was 1.51.
As to `Cc1ccc(C(=O)Nc2cc(C)n(Cc3ccc(F)cc3)n2)cn1` [Compound I-1-109], where the note is “LC-MS in the acidic range”, the “log P (acid)” value is reported as 1.76.
For the molecule `Cc1cc(NC(=O)c2ccc(Cl)nc2)nn1Cc1cccc(F)c1` [Compound I-1-106], the “log P (acid)” value (LC-MS in the acidic range) turned out to be 2.6.
Consider `CN(C)C(=O)n1cnc(NC(=O)c2cccnc2)n1` [Compound I-2-9], for which the “log P (acid)” value under setting [6] stood at 0.47.
On to `O=C(Nc1nn(Cc2ncccn2)cc1Cl)c1cccnc1` [Compound I-1-137], for which the “log P (acid)” value (LC-MS in the acidic range) is recorded as 0.58.
Still for that read-out and setting: in the case of `CCOC(=O)c1cn(Cc2ccccc2)nc1NC(=O)c1cccnc1` [Compound I-1-272] it was 0.79.
For the molecule `Cc1cc(N)nn1Cn1c(=O)n(C)c(=O)n1C` [II-1-48], the “log P (acid)” value under setting [2] is on record as 0.03.
Regarding `Cc1cc(N)nn1Cn1nccc1C(F)(F)F` [II-1-41], the “log P (acid)” value under setting [2] amounted to 1.26.
As to `Cc1cc(NC(=O)c2cncc(F)c2)nn1CC(=O)O` [Compound I-1-114], the “log P (acid)” value (LC-MS in the acidic range) worked out at 0.87.
As for `Cc1cc(N)nn1CN1CCS/C1=N/C#N` [II-1-44], the “log P (acid)” value under setting [2] stood at 0.44.
Same read-out and setting: in the case of `Cc1cc(N)nn1Cc1ccc(Cl)nc1` [II-1-5] it was 0.77.
Regarding `Cc1nn(-c2cc(Cl)ccc2Cl)nc1NC(=O)c1cccnc1` [Compound I-3-22], the “log P (acid)” value under setting [1] is recorded as 2.26.
Consider `Cc1cc(NC(=O)c2cncc(Br)c2)nn1Cc1ccccc1F` [Compound I-1-101], for which the “log P (acid)” value (LC-MS in the acidic range) is given as 2.69.
On to `Cc1cc(C)nc(Cn2nc(N)cc2C)n1` [II-1-9], for which the “log P (acid)” value under setting [2] turned out to be 0.42.
The same measure, in the same setting: under `Cc1ccnn1Cn1nc(N)cc1C` [II-1-39] stands 0.52; under `N#Cc1cc(N)nn1Cc1ncccn1` [II-1-62], 0.20.
Consider `CCCn1nnc(NC(=O)c2cccnc2)n1` [Compound I-4-9], for which the “log P (acid)” value under setting [5] was 0.76.
Regarding `O=C(Nc1nn(-c2ccccc2)nc1Br)c1cccnc1` [Compound I-3-3], the “log P (acid)” value under setting [1] worked out at 2.09.
Regarding `Nc1cc(C2CC2)n(Cc2ccccc2)n1` [II-1-2], the “log P (acid)” value under setting [2] is on record as 1.36.
With `O=C(Nc1nn(-c2ccc(Cl)cc2)nc1C(F)(F)F)c1cccnc1` [Compound I-3-20], under setting [1], the “log P (acid)” value turned out to be 2.93.
Consider `Cc1ccnc(Cn2nc(NC(=O)c3ccnnc3)cc2C)n1` [Compound I-1-253], for which the “log P (acid)” value (LC-MS in the acidic range) worked out at 0.88.
In the case of `O=C(Nc1ccn(Cc2ncc(C(F)(F)F)cc2Cl)n1)c1ccc(Cl)nc1` [Compound I-1-118, 6-Chloro-N-(1-{[3-chloro-5-(trifluoromethyl)pyridin-2-yl]methyl}-1H-pyrazol-3-yl)nicotinamide], the chromatographic logP runs as follows: under setting [3], 2.64; under setting [4], 2.64.
`Cc1cc(NC(=O)c2ccnnc2)nn1Cn1nc(C2CC2)n(C2CC2)c1=O` [Compound I-1-150]: for the setting “LC-MS in the acidic range”, the “log P (acid)” value is on record as 1.33.

Values taken from patent US20160106102A1, “KNOWN AND NEW HETEROCYCLIC COMPOUNDS AS PEST CONTROL AGENTS” (BAYER CROPSCIENCE AKTIENGESELLSCHAFT, priority 2013, published 2016).
